Source: ChEMBL document CHEMBL1133109, “Design, synthesis, and pharmacological characterization of 4-[4, 4-dimethyl-3-(4-hydroxybutyl)-5-oxo-2-thioxo-1-imidazolidinyl]- 2-iodobenzonitrile as a high-affinity nonsteroidal androgen receptor ligand” (J Med Chem, 2000)

Molecular target: T1, Androgen receptor (Rattus norvegicus, UniProt P15207)
T1 sequence (P15207 whole entry): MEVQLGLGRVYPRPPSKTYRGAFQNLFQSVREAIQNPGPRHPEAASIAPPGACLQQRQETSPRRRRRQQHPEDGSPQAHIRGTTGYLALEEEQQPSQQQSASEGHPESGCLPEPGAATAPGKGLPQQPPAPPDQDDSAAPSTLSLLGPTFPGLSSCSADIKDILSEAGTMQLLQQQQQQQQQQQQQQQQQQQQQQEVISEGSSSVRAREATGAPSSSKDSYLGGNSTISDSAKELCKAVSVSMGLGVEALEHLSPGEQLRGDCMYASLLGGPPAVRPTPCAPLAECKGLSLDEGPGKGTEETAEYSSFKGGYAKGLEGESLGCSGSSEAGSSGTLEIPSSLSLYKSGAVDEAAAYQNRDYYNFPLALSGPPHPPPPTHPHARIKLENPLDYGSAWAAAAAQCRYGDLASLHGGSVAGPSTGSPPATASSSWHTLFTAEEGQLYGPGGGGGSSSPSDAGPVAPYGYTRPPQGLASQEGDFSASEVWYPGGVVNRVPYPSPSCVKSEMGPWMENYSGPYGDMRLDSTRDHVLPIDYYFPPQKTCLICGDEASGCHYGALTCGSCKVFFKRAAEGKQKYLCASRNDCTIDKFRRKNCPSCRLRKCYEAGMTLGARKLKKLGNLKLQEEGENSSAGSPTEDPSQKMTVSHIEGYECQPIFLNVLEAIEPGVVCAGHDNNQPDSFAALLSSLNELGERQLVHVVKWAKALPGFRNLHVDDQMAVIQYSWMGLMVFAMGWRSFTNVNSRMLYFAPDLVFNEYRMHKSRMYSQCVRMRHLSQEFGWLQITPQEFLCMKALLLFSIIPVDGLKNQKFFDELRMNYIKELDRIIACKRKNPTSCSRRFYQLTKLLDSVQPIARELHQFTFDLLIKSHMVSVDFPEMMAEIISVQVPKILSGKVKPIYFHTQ
Description: Inhibitory constant against rat prostate cytosol androgen receptor using [3H]mibolerone

`CC1(C)C(=O)N(c2ccc(C#N)c(I)c2)C(=S)N1CCCCO` showed a Ki of 710 pM.
Work on `CC1(C)C(=O)N(c2ccc(C#N)c(C(F)(F)F)c2)C(=S)N1CCCCO` yielded a Ki of 2230 pM.
Molecule `C[C@@H]1CC2=CC(=O)CC[C@@H]2[C@H]2CC[C@@]3(C)[C@@H](CC[C@]3(C)O)[C@@H]21` [MIBOLERONE] has a Ki of 750 pM.
